Measurements published in PubChem BioAssay AID2060483 (Molecular Pharmacology Branch, DTP, NCI, 2025).
Several values for one entry are separate records, joined by “and”; a condition that tells them apart may be missing. Equal entries are not always repeated.

Test system: K24384-001-R-PDC complex spheroids, viability
Assay: Anticancer human tumor K24384-001-R-PDC patient-derived pancreatic adenocarcinoma cell line growth inhibition [GQUAD]
Details: for viability, T/C: stronger effect = lower value
Excerpt: DNA G-quadruplex Stabilizer Agents in Combinations in Complex Spheroids
A high-throughput screen of multi-cell type tumor spheroids was designed to identify active combinations of DNA G-quadruplex stabilizer agents and targeted small molecules. Complex spheroids include a stromal component modeled by human endothelial cells (HUVEC) and fibroblasts modeled by human mesenchymal stem cells (MSCs). The concentration ranges selected for each drug and investigational agent were based upon clinically achievable concentrations if the clinical Cmax of the agent was known.
Compounds. The drugs and investigational agents: pidnarulex (CX-5461; NSC782164), APTO-253 (NSC789042), BRACO-19 (NSC847499), peposertib (NSC802822), ceralasertib (NSC780249), elimusertib (NSC800525), camonsertib (NSC841442), AZD-1390 (NSC803789), olaparib (NSC753686), talazoparib (NSC767125), ART-558 (NSC835418), sotorasib (NSC818433), MRTX-1133 (NSC836407), SN-38 (NSC673596), topotecan (NSC609699), etoposide (NSC141540), doxorubicin (NSC123127), gemcitabine (NSC613327), 5-fluorouracil (NSC19893), paclitaxel (NSC125973), vemurafenib (NSC761431), panobinostat (NSC761190), R-306465 (JNJ-16241199; NSC773264), adavosertib (NSC754352), TP-3654 (NSC805149), carboplatin (NSC241240), KSQ-4279 (NSC840948), and staurosporine (NSC755774) were obtained from the National Cancer Institute (NCI) Developmental Therapeutics Program Chemical Repository (34). The FDA-approved anticancer drug set is available from the NCI Developmental Therapeutics Program. […] The stock solutions were prepared in dimethyl sulfoxide (DMSO, Sigma-Aldrich, St. Louis, MO, cat. D2650) at 800-fold the tested concentration and stored at -70 degrees C prior to their use. All drugs and investigational agents were tested over a range starting from a high concentration at or near the clinical Cmax and decreasing in half-log increments. If the clinical Cmax for an agent had not been determined, the highest concentration tested was 10 microM.
2.3 Cell Culture. All cells were maintained in an incubator at 37 degrees C and 5% CO2 with 95% humidity. The PDC lines were cultured according to standard operating procedures established by the NCI PDMR. All PDCs were thawed and cultured in Matrigel-coated flasks prepared with a working solution of 1X Ham's F-12 nutrient mix, without supplementation (Invitrogen, cat. 11765054), 100 U/mL penicillin-streptomycin (Invitrogen, cat. 15140122), and 2.5% Matrigel (Corning Inc., cat. 354248) for the first three passages. The 857933-349-R-J2-PDC line was cultured in 6C/Colon 1B media, which includes advanced DMEM/F-12 (Thermo Fisher Scientific, cat. 12634028), 10 mM HEPES (Thermo Fisher Scientific, cat. 15630080), 1X GlutaMAX supplement (Thermo Fisher Scientific, cat. 35050061), 0.1 mg/mL primocin (InvivoGen, cat. ant-pm-2), 10% defined fetal bovine serum, heat inactivated (HyClone Laboratories Inc., cat. SH30070.03HI), 50% L-WRN conditioned media (ATCC, cat. CRL-3276), 1.25 mM N-Acetyl-L-cysteine (Sigma-Aldrich, cat. A9165), 10 mM nicotinamide (Sigma-Aldrich, cat. N0636), 1X B-27 supplement (Thermo Fisher Scientific, cat. 17504044), 1X N-2 supplement (Thermo Fisher Scientific, cat. 17502048), 10 microM Y-27632 dihydrochloride (Tocris Bioscience, cat. 1254), and 50 ng/mL human EGF recombinant protein (Thermo Fisher Scientific, cat. PHG0311). The 485176-168-R4-J1-PDC line was cultured in Panc media, which includes all 6C/Colon 1B media components plus 100 ng/mL human FGF-10 (Thermo Fisher Scientific, cat. 100-26), 500 nM SB-431542 (Selleckchem, cat. S1067), and gastrin (Tocris, cat. 3006).
[…]
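Also: spheroids exposed to compounds for seven days.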

With `Cc1cccc(N(C)C(=O)C2C(O)CCN2c2nc(C)cc(C(F)(F)F)c2C#N)c1` (stereo unspecified) the viability, T/C (compound 0.0316 µM) was 111% and 106% and 99%, the viability, T/C (compound 0.1 µM) was 106% and 98% and 82% and the viability, T/C (compound 0.316 µM) was 122% and 102% and 99.9%. The viability, T/C (compound 1 µM) was 91.4% and 86.8% and 108%, the viability, T/C (compound 3.16 µM) was 115% and 88% and 114% and the viability, T/C (compound 10 µM) was 115% and 106% and 127%. The IC50 (curve of compound) was greater than 10 µM.

For `Cc1cnc(CNC(=O)c2c(=O)c3ccc(N4CCCN(C)CC4)nc3n3c2sc2ccccc23)cn1`, the viability, T/C (compound 0.0316 µM) was 82.8% [middle of 12 runs], the viability, T/C (compound 0.1 µM) was 66.4% [middle of 12 runs] and the viability, T/C (compound 0.316 µM) was 50.4% [middle of 12 runs]. The viability, T/C (compound 1 µM) was 44.4% [middle of 12 runs] and the viability, T/C (compound 3.16 µM) was 34.6% [middle of 12 runs].

Work on `O=c1[nH]cc(F)c(=O)[nH]1` + Cc1[nH]c2ccc(F)cc2c1-c1nc2c3cccnc3c3ncccc3c2[nH]1 yielded an IC50 (curve of first compound, second compound 0.0316 µM) of 4.36 µM, an IC50 (curve of first compound, second compound 0.1 µM) greater than 10 µM and an IC50 (curve of first compound, second compound 0.316 µM) of 1.18 µM. For the same compound, the IC50 (curve of first compound, second compound 1 µM) was 3.09 µM, the IC50 (curve of first compound, second compound 3.16 µM) was 0.479 µM and the IC50 (curve of first compound, second compound 10 µM) was 0.581 µM. For the same compound, the viability, T/C (second compound 0.0316 µM, first compound 0.0316 µM) was 98.4%, the viability, T/C (second compound 0.0316 µM, first compound 0.1 µM) was 77.9% and the viability, T/C (second compound 0.0316 µM, first compound 0.316 µM) was 76.1%. It also gave a viability, T/C (second compound 0.0316 µM, first compound 1 µM) of 55.5%, a viability, T/C (second compound 0.0316 µM, first compound 3.16 µM) of 54.9% and a viability, T/C (second compound 0.0316 µM, first compound 10 µM) of 44.4%. The viability, T/C (second compound 0.1 µM, first compound 0.0316 µM) was 88.4%, the viability, T/C (second compound 0.1 µM, first compound 0.1 µM) was 92.7% and the viability, T/C (second compound 0.1 µM, first compound 0.316 µM) was 86.8%. It also gave a viability, T/C (second compound 0.1 µM, first compound 1 µM) of 55.6%, a viability, T/C (second compound 0.1 µM, first compound 3.16 µM) of 62.4% and a viability, T/C (second compound 0.1 µM, first compound 10 µM) of 39.6%. The viability, T/C (second compound 0.316 µM, first compound 0.0316 µM) was 97%, the viability, T/C (second compound 0.316 µM, first compound 0.1 µM) was 90.9% and the viability, T/C (second compound 0.316 µM, first compound 0.316 µM) was 66.3%. The viability, T/C (second compound 0.316 µM, first compound 1 µM) was 53.3%, the viability, T/C (second compound 0.316 µM, first compound 3.16 µM) was 43.2% and the viability, T/C (second compound 0.316 µM, first compound 10 µM) was 39.9%. The viability, T/C (second compound 1 µM, first compound 0.0316 µM) was 88.2%, the viability, T/C (second compound 1 µM, first compound 0.1 µM) was 93.1% and the viability, T/C (second compound 1 µM, first compound 0.316 µM) was 66.7%. For the same compound, the viability, T/C (second compound 1 µM, first compound 1 µM) was 59.9%, the viability, T/C (second compound 1 µM, first compound 3.16 µM) was 54.8% and the viability, T/C (second compound 1 µM, first compound 10 µM) was 36.3%. The viability, T/C (second compound 3.16 µM, first compound 0.0316 µM) was 69.4%, the viability, T/C (second compound 3.16 µM, first compound 0.1 µM) was 56.5% and the viability, T/C (second compound 3.16 µM, first compound 0.316 µM) was 51.9%. It also gave a viability, T/C (second compound 3.16 µM, first compound 1 µM) of 53%, a viability, T/C (second compound 3.16 µM, first compound 3.16 µM) of 35.5% and a viability, T/C (second compound 3.16 µM, first compound 10 µM) of 43%. For the same compound, the viability, T/C (second compound 10 µM, first compound 0.0316 µM) was 65.3%, the viability, T/C (second compound 10 µM, first compound 0.1 µM) was 53.6% and the viability, T/C (second compound 10 µM, first compound 0.316 µM) was 62.3%. The viability, T/C (second compound 10 µM, first compound 1 µM) was 40.7%, the viability, T/C (second compound 10 µM, first compound 3.16 µM) was 33.8% and the viability, T/C (second compound 10 µM, first compound 10 µM) was 31.7%.

In the case of `COc1ccc([C@@H](O)c2cc(-c3ncnc4cc(N5CCOCC5)ccc34)c(F)cc2Cl)nn1`, the viability, T/C (compound 0.0316 µM) is reported as 92.4% and 98.4% and 120%, the viability, T/C (compound 0.1 µM) is reported as 99.1% and 95.7% and 103% and the viability, T/C (compound 0.316 µM) is reported as 103% and 83.4% and 83.3%. For the same compound, the viability, T/C (compound 1 µM) was 72.3% and 65% and 84.7%, the viability, T/C (compound 3.16 µM) was 48.4% and 44.9% and 56% and the viability, T/C (compound 10 µM) was 29.8% and 22.7% and 35.5%. For the same compound, the IC50 (curve of compound) was 2.66 µM and 2.31 µM and 4.74 µM.
